Active and inactive are the calls of the source. No cut-off for these calls is given here.

In assay [1] the test system is Rattus norvegicus. Briefly: Anti-inflammatory activity in Rattus norvegicus Wistar (rat) assessed as cotton pellet-induced dry weight of granuloma administered 7 days post cotton pellet implantation measured on day 8 (reference value: […]). It is filed as functional.
Assay [2] deals with Rattus norvegicus. Briefly: Anti-inflammatory activity in Rattus norvegicus Wistar (rat) assessed as inhibition of histamine-induced paw edema at 25 mg/kg, ip administered 30 min […] measured at 1 hr relative to control. It is filed as functional. Particulars: route intraperitoneal.
Assay [3] has as its system Rattus norvegicus. As to the kind of experiment: Anti-inflammatory activity in Rattus norvegicus Wistar (rat) assessed as inhibition of formalin-induced paw edema at 25 mg/kg, ip administered 30 min prior to formalin challenge measured at 1 hr relative to control. The assay is classed as functional. Particulars: route intraperitoneal.
In assay [4] the test system is Rattus norvegicus. Briefly: Anti-inflammatory activity in Rattus norvegicus Wistar (rat) assessed as inhibition of […]-induced ear edema administered 30 min prior to […] challenge measured after 30 min by Evans blue dye-based spectrophotometric analysis relative to control. It is filed as functional, organism-based.
The test system of assay [5] is Rattus norvegicus. As to the kind of experiment: Anti-inflammatory activity in Rattus norvegicus Wistar (rat) assessed as inhibition of acetic acid-induced dye extrusion into peritonial cavity administered 30 min prior to acetic acid challenge measured after 30 min by Evans blue dye-based spectrophotometric analysis relative to control. It is filed as functional.
In assay [6] the test system is Rattus norvegicus. Briefly: Anti-inflammatory activity in Rattus norvegicus Wistar (rat) assessed as inhibition of formalin-induced dye extrusion from plantar surface of paws at 25 mg/kg, ip administered 30 min prior to formalin challenge measured after 30 min by Evans blue dye-based spectrophotometric analysis. It is filed as functional. Particulars: route intraperitoneal.

Assay [7] deals with Rattus norvegicus. As to the kind of experiment: Anti-inflammatory activity in Rattus norvegicus Wistar (rat) assessed as inhibition of histamine-induced dye extrusion from plantar surface of paws at 25 mg/kg, ip administered 30 min […] measured after 30 min by Evans blue dye-based spectroscopic analysis. It is filed as functional. The following applies: route intraperitoneal.

Take `CN(C)CCOC(c1ccccc1)c1ccccc1` [DIPHENHYDRAMINE]: the Activity in the assay on Rattus norvegicus [1] is 76.2 mg.

Broadly, the inhibition in vivo is the relative decrease from the control value, in per cent. Turning to `CN(C)CCOC(c1ccccc1)c1ccc(Br)cc1` (configuration not stated) [BROMODIPHENHYDRAMINE], the inhibition in vivo at 25 mg/kg came out at 22.4% in the assay with Rattus norvegicus [2] and 14.3% with Rattus norvegicus [3]. The inhibition result with Rattus norvegicus [4] was “inactive”. Further, the inhibition entry in the assay with Rattus norvegicus [5] is “Active”.

Take `Cc1ccc(C(OCCN(C)C)c2ccc(C)cc2)cc1` [DI(P-TOLYL)(DIMETHYLAMINOETHOXY)METHANE]: in the assay with Rattus norvegicus [1], the Activity came to 73.2 mg. The inhibition in vivo at 25 mg/kg was 40.8% in the assay on Rattus norvegicus [2], 34.7% with Rattus norvegicus [3], 66.7% with Rattus norvegicus [6] and 57.1% in the assay on Rattus norvegicus [7]. Also, the inhibition entry in the assay with Rattus norvegicus [4] was “inactive”. The “inhibition (INH)” value with Rattus norvegicus [5] came to 65.3%.

Regarding `Cc1ccc(C(OCCN2CCOCC2)c2ccc(C)cc2)cc1`, the Activity in the assay on Rattus norvegicus [1] was 71 mg. For the same molecule, in the assay on Rattus norvegicus [4], the inhibition result was “inactive”. Further, the inhibition in vivo at 25 mg/kg in the assay with Rattus norvegicus [6] and in the assay with Rattus norvegicus [7] was 60% throughout. The “inhibition (INH)” value with Rattus norvegicus [5] is 63.26%.

The values above are taken from ChEMBL document CHEMBL3046069, “Anti-inflammatory effects of two new methyl and morpholine derivatives of diphenhydramine on rats” (2012).
